Measured values: paper PMC8948797 (International Journal of Molecular Sciences, 2022)

Test system: hALN
Test: cytoplasmic calcium measurements (Fluo-8) in hALN
Type: cell-based, human
Settings: 50 mM KCl, 21–30-day-old hALN, Figure S2
Source text: Figure 3 Characterization of the hALN. (A) 1 s-long depolarizing, and hyperpolarizing pulses injected into a hALN neuron. […] (E) Representative image of Fluo-8-loaded cells and region of interest for individual cells for intensity measurements (white line). […] Data are presented as fluorescence intensity in arbitrary units.
To test the effect of NPFFR2 on the cytoplasmic calcium dynamics, we measured intracellular calcium concentrations using hALNs loaded with Fluo-8. Typically, neurons display calcium oscillations with synchronized patterns, as cells become mature and capable of forming electrical connections with one another. We first recorded basal spontaneous activity in 21–30-day old hALNs and observed synchronized calcium oscillations in 30–70% of cells (Figure 3D–F).
In 8 ± 3% cells, we detected no change, and the remaining 13 ± 5% cells increased their oscillation rate (n = 12).
Cytosolic (Ca2+)i was measured using Ca^2+ indicator Fluo-8. […] Baseline signal was measured at 488 nm excitation and 510 nm emission using inCell analyzer 2000 for 5 min. […] After the background subtraction, calcium responses were processed and analyzed using ImageJ. Mean intensity over time was measured in ROIs including cytoplasmic soma area of individual cells and their traceable extensions. […] Data are presented as fluorescence intensity in arbitrary units. […]

[Cl-].[K+] [KCl]
cytoplasmic calcium response to KCl: induced a cytoplasmic calcium transient increase
